In US4990450A, “Method of producing endo-α-N-acetylgalactosaminidase from microorganisms” (Seitetsu Kagaku Co., Ltd., priority 1987, dated 1991):
Where two headings read alike, the source gives them in different places.

What was measured:
endo-α-GalNAcase [1] = assay: Effects of inhibitors (additives) on enzyme activity; type: biochemical, Alcaligenes sp. F-1906
Protocol: (§1) The activity of this enzyme can be measured with asialofetuin as a substrate. The enzyme reaction is carried out in citrate buffer, pH 4.5, at 37° C., and then stopped by adding a borate buffer, pH 9.1, to this reaction mixture. The Gal β1→3GalNAc produced is measured by the method of Reissig. One unit of enzyme activity is defined as the amount of enzyme that releases 1 μmol of Gal β1,→3GalNAc in one minute.
The enzyme was tested for the effects of various kinds of substances.

endo-α-GalNAcase [2] = assay: Substrate specificity of the enzyme; type: biochemical, Alcaligenes sp. F-1906
[3] = pH and temperature stability of the enzyme; type: physicochemical
Protocol: (§2) The optimum pH of the enzyme reaction is 4.5-5.0 The enzyme is stable in the pH range of 4.2-6.5. thin this pH range, the activity remains about 90% or more after the enzyme is left at 1 hour at 30° C.
(§3) The optimum temperature for the enzyme reaction is 40-45° C. The temperature at which the enzyme is stable for 10 minutes when kept in a phosphate buffer, pH 6.0, is 30° C. or less. At 40° C., about 70% of the activity remains after such treatment.

asialofetuin = assay: Enzyme activity with asialofetuin as substrate (optimum pH, optimum temperature, activity of purified enzyme); type: biochemical
Protocol: as §1, §2, §3
Commercially available mucin from pig gastric mucosa was mixed with 1 N sulfuric acid and left for 1 hour at 80° C. for hydrolysis, which removed the sialic acid moiety of the mucin. The hydrolysate was added to the medium at the concentration of 1%. Five hundred milliliters of the medium was put into each of 40 flasks with a capacity of 2 liters, which were sterilized and were inoculated with 5 ml of pre-cultured Alcaligenes sp. F-1906. The flasks were cultured at 28° C. for 3 days. After the culture, the bacterial cells were removed by centrifugation, and the supernatant of the culture was obtained. Ammonium sulfate was added to this supernatant at 0-5° C. and the fractions that precipitated at the saturation of 40-80% ammonium sulfate were collected. This precipitate was dissolved in 0.01 M phosphate buffer, pH 6.0, and then dialyzed overnight against the same buffer. The dialysate was put on a DEAE-Sephadex® A-50 column (5.0×32.5 cm) equilibrated with 0.01 M phosphate buffer. After the column was washed with the same buffer containing 0.2 M NaCl, the enzyme was eluted with the same buffer containing 0.4 M NaCl. […]

[4] = additive concentration 2.5 mM, no additive = 100
[5] = additive concentration 2.4 mM, no additive = 100
[6] = additive concentration 2.0 mM, no additive = 100

Q: Which Relative activity (endo-α-GalNAcase [1]; [4]) does the source give for `[Ca+2]` [Ca] here?
A: 109%

Q: For `[Cu+2]` [Cu], which “Inhibition of the enzyme” value (endo-α-GalNAcase [1]; Table 2) is on record?
A: 26-35%

Q: And the Relative activity (endo-α-GalNAcase [1]; [4])?
A: 74%

Q: Which “Inhibition of the enzyme” value (endo-α-GalNAcase [1]; Table 2) does the source give for `N[C@@H](CS)C(=O)O` [Cysteine] here?
A: approximately 30%

Q: And the Relative activity (endo-α-GalNAcase [1]; [5])?
A: 68%

Q: With `O=C(O)CN(CCN(CC(=O)O)CC(=O)O)CC(=O)O` [Ethylenediamine-tetraacetic acid] as the molecule, how does the Relative activity (endo-α-GalNAcase [1]; [4]) read?
A: 97%

Q: With `N[C@H]1C(O)O[C@H](CO)[C@H](O)[C@@H]1O` (stereo partly drawn) [Galactosamine] as the molecule, how does the Relative activity (endo-α-GalNAcase [1]; [6]) read?
A: 106%

Q: With `OC[C@H]1OC(O)[C@H](O)[C@@H](O)[C@H]1O` (stereo partly drawn) [Galactose] as the molecule, how does the Relative activity (endo-α-GalNAcase [1]; [6]) read?
A: 107%

Q: For `N[C@H]1C(O)O[C@H](CO)[C@@H](O)[C@@H]1O` (stereo partly drawn) [Glucosamine], which Relative activity (endo-α-GalNAcase [1]; [6]) is on record?
A: 111%

Q: Which Relative activity (endo-α-GalNAcase [1]; [6]) does the source give for `OC[C@H]1OC(O)[C@H](O)[C@@H](O)[C@@H]1O` (stereo partly drawn) [Glucose] here?
A: 109%

Q: Which results are given for `O=C(O)CI` [Iodoacetic acid]?
A: Effect on enzyme activity (in words) (endo-α-GalNAcase [1]): almost unaffected; Relative activity (endo-α-GalNAcase [1]; endo-alpha-galnacase, pH 4.5, 2400 µM): 109%

Q: What does the source list for `OCCS` [Mercaptoethanol]?
A: Effect on enzyme activity (in words) (endo-α-GalNAcase [1]; Table 2): almost unaffected; Relative activity (endo-α-GalNAcase [1]; [5]): 97%

Q: For `[Mn+2]` [Mn], which “Inhibition of the enzyme” value (endo-α-GalNAcase [1]; Table 2) is on record?
A: 26-35%

Q: And the Relative activity (endo-α-GalNAcase [1]; [4])?
A: 65%

Q: For `CCN1C(=O)C=CC1=O` [N-Ethylmaleimide], which “Effect on enzyme activity (in words)” value (endo-α-GalNAcase [1]; Table 2) is on record?
A: almost unaffected

Q: And the Relative activity (endo-α-GalNAcase [1]; [5])?
A: 105%

Q: For `CC(=O)N[C@H]1[C@H]([C@H](O)[C@H](O)CO)OC(O)(C(=O)O)C[C@@H]1O` (stereo partly drawn) [Sialic acid], which Relative activity (endo-α-GalNAcase [1]; additive concentration 1.0 mM, no additive = 100) is on record?
A: 106%

Q: For `[Zn+2]` [Zn], which Relative activity (endo-α-GalNAcase [1]; [4]) is on record?
A: 88%

Q: Which “Effect on enzyme activity (in words)” value (endo-α-GalNAcase [1]; Table 2) does the source give for `O=C(O)c1cc[c]([Hg][Cl])cc1` [p-Chloromercuribenzoic acid] here?
A: almost unaffected

Q: And the Relative activity (endo-α-GalNAcase [1]; [5])?
A: 99%

Q: Which “Use as substrate of the enzyme” value (endo-α-GalNAcase [2]) does the source give for “asialofetuin: glycoprotein with O-glycosidic Gal β1→3GalNAc α→Ser (or Thr) sugar chains, used as substrate” here?
A: can be used as substrates

Q: With “endo-α-N-acetylgalactosaminidase [endo-α-GalNAcase]” as the molecule, how does the Activity remaining ([3]; 40° C., 10 minutes in phosphate buffer, pH 6.0) read?
A: about 70%

Q: What about the “Temperature at which the enzyme is stable” value ([3]; 10 minutes in phosphate buffer, pH 6.0) of the same molecule?
A: ≤ 30 °C

Q: What about the “pH range in which the enzyme is stable” value ([3]; 1 hour at 30° C.) of the same molecule?
A: 4.2-6.5

Q: And the Activity remaining ([3]; within pH 4.2-6.5, 1 hour at 30° C.)?
A: ≥ 90%

Q: And the “Optimum pH of the enzyme reaction” value (asialofetuin)?
A: 4.5-5.0

Q: And the “Optimum temperature for the enzyme reaction” value (asialofetuin)?
A: 40-45 °C

Q: And the “relative activity of purified enzyme” value (asialofetuin; purified form, Example 1)?
A: 2.2 units/mg
